Experimental data published in US20240116985A1, “STAPLED PEPTIDES AND METHODS THEREOF” (priority 2020, published 2024).

What was measured:
[1] = molecular target: T1, full-length beta-Catenin (Uniprot ID P35222) (Homo sapiens, UniProt P35222); assay: Fluorescence polarization IC50 (beta-catenin / 5FAM-TCF4 10-53 competition); format: binding; conditions: fluorescence polarization; read-out: beta-Catenin FP IC50
T1 construct: 10 nM full-length beta-Catenin (Uniprot ID P35222)
T1 sequence (P35222 1-781): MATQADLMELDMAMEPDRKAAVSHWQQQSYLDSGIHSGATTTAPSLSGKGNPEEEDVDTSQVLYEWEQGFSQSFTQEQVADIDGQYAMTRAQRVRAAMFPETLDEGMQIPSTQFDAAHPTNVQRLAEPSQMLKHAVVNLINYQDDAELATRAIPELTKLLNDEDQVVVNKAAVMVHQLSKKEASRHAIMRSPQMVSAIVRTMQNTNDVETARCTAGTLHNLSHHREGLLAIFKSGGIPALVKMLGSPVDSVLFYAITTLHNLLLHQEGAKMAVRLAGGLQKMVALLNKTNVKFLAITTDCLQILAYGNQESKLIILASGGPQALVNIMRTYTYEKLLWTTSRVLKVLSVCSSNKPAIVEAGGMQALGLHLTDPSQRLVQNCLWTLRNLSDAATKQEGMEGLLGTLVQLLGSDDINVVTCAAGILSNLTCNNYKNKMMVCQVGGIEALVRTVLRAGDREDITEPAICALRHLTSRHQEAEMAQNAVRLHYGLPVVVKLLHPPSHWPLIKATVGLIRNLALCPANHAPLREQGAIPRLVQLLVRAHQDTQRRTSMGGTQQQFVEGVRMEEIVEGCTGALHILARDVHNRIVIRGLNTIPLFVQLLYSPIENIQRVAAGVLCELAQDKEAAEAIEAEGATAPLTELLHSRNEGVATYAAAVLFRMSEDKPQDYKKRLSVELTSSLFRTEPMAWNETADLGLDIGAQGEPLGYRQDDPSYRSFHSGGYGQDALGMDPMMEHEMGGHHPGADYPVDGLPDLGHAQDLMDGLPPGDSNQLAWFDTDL

[2] = molecular target: T2, beta-catenin/TCF4 engagement (Homo sapiens, UniProt P35222); assay: Nano-BRET target engagement assay (B-cat-Halo & TCF4-Luc in HEK293 cells); format: cell-based; conditions: absolute IC50; read-out: NanoBRET Abs IC50
T2 construct: expressed in transfected cells; host or cells: HEK293
T2 sequence (P35222 1-781): T1 sequence (P35222 1-781)

SMILES	IC50 [1] [nM]	IC50 [2] [nM]
CC(=O)N1CCC[C@]12CC=CCCCC1(CCCC=CCCCOC(=O)N3CC[C@@](C(=O)N[C@@H](Cc4ccccc4C(F)(F)F)C(=O)N[C@@H](Cc4ccc(Cl)cc4)C(=O)N[C@@H](CO)C(N)=O)(C3)NC(=O)[C@H](CC(C)C)NC(=O)[C@H](Cc3ccccc3)NC(=O)[C@H](C)NC(=O)[C@H](C)NC(=O)[C@H](Cc3cccc(C(=O)O)c3)NC(=O)[C@H](CC(=O)O)NC1=O)NC(=O)[C@H](CC(C)(C)C)NC(=O)[C@H](CC(=O)O)NC2=O (stereo partly drawn) [I-2222, Ac-PL3-Asp-Npg-B5-Asp-3COOHF-Ala-Ala-Phe-Leu-PyrS2-2F3MeF-4C1F-Ser-NH2]	84	11700
CC(=O)N1CCC[C@]12CC=CCCCC1(CCCC=CCCCOC(=O)N3CC[C@@](C(=O)N[C@@H](Cc4ccccc4C(F)(F)F)C(=O)N[C@@H](Cc4ccc(Cl)cc4)C(=O)N[C@@H](C)C(N)=O)(C3)NC(=O)[C@H](CC(C)C)NC(=O)[C@H](Cc3ccccc3)NC(=O)[C@H](C)NC(=O)[C@H](CCC(N)=O)NC(=O)[C@H](Cc3cccc(C(=O)O)c3)NC(=O)[C@H](CC(=O)O)NC1=O)NC(=O)[C@H](CC(C)(C)C)NC(=O)[C@H](CC(=O)O)NC2=O (stereo partly drawn) [I-2223, Ac-PL3-Asp-Npg-B5-Asp-3COOHF-Gln-Ala-Phe-Leu-PyrS2-2F3MeF-4C1F-Ala-NH2]	50	9000
CC(=O)N1CCC[C@]12CC=CCCCC1(CCCC=CCCCOC(=O)N3CC[C@@](C(=O)N[C@@H](Cc4ccsc4)C(=O)N[C@@H](Cc4cccc(Cl)c4)C(=O)N[C@@H](CCC(N)=O)C(N)=O)(C3)NC(=O)[C@H](CC(C)C)NC(=O)[C@H](Cc3ccccc3)NC(=O)[C@H](C)NC(=O)[C@H](C)NC(=O)[C@H](Cc3cccc(C(=O)O)c3)NC(=O)[C@H](CC(=O)O)NC1=O)NC(=O)[C@H](CC(C)(C)C)NC(=O)[C@H](CC(=O)O)NC2=O (stereo partly drawn) [I-2224, Ac-PL3-Asp-Npg-B5-Asp-3COOHF-Ala-Ala-Phe-Leu-PyrS2-3Thi-3C1F-Gln-NH2]	14	14200
CC(=O)N1CCC[C@]12CC=CCCCC1(CCCC=CCCCOC(=O)N3CC[C@@](C(=O)N[C@@H](Cc4ccsc4)C(=O)N[C@@H](Cc4cccc(Cl)c4)C(=O)N[C@@H](C)C(N)=O)(C3)NC(=O)[C@H](C(C)C)NC(=O)[C@H](Cc3ccccc3)NC(=O)[C@H](C)NC(=O)[C@H](CCC(N)=O)NC(=O)[C@H](Cc3cccc(C(=O)O)c3)NC(=O)[C@H](CC(=O)O)NC1=O)NC(=O)[C@H](CC(C)(C)C)NC(=O)[C@H](CC(=O)O)NC2=O (stereo partly drawn) [I-2225, Ac-PL3-Asp-Npg-B5-Asp-3COOHF-Gln-Ala-Phe-Val-PyrS2-3Thi-3C1F-Ala-NH2]	13	7800
CC(=O)N1CCC[C@]12CC=CCCCC1(CCCC=CCCCOC(=O)N3CC[C@@](C(=O)N[C@@H](Cc4ccccc4C(F)(F)F)C(=O)N[C@@H](Cc4cccc(Cl)c4)C(=O)N[C@@H](CO)C(N)=O)(C3)NC(=O)[C@H](CC(C)C)NC(=O)[C@H](Cc3ccccc3)NC(=O)[C@H](C)NC(=O)[C@H](C)NC(=O)[C@H](Cc3cccc(C(=O)O)c3)NC(=O)[C@H](CC(=O)O)NC1=O)NC(=O)[C@H](CC(C)(C)C)NC(=O)[C@H](CC(=O)O)NC2=O (stereo partly drawn) [I-2226, Ac-PL3-Asp-Npg-B5-Asp-3COOHF-Ala-Ala-Phe-Leu-PyrS2-2F3MeF-3C1F-Ser-NH2]	97	10600
CC(=O)N1CCC[C@]12CC=CCCCC1(CCCC=CCCCOC(=O)N3CC[C@@](C(=O)N[C@@H](Cc4ccccc4C(F)(F)F)C(=O)N[C@@H](Cc4cccc(Cl)c4)C(=O)N[C@@H](C)C(N)=O)(C3)NC(=O)[C@H](CC(C)C)NC(=O)[C@H](Cc3ccccc3)NC(=O)[C@H](C)NC(=O)[C@H](CCC(N)=O)NC(=O)[C@H](Cc3cccc(C(=O)O)c3)NC(=O)[C@H](CC(=O)O)NC1=O)NC(=O)[C@H](CC(C)(C)C)NC(=O)[C@H](CC(=O)O)NC2=O (stereo partly drawn) [I-2227, Ac-PL3-Asp-Npg-B5-Asp-3COOHF-Gln-Ala-Phe-Leu-PyrS2-2F3MeF-3C1F-Ala-NH2]	47	6300
CC(=O)N1CCC[C@]12CC=CCCCC1(CCCC=CCCCOC(=O)N3CC[C@@](C(=O)N[C@@H](Cc4ccsc4)C(=O)N[C@@H](Cc4csc5ccccc45)C(=O)N[C@@H](CCC(N)=O)C(N)=O)(C3)NC(=O)[C@H](CC(C)C)NC(=O)[C@H](Cc3ccccc3)NC(=O)[C@H](C)NC(=O)[C@H](C)NC(=O)[C@H](CN(CC(=O)O)C(=O)CCCN(C)C)NC(=O)[C@H](CC(=O)O)NC1=O)NC(=O)[C@H](CC(C)(C)C)NC(=O)[C@H](CC(=O)O)NC2=O (stereo partly drawn) [I-2233, Ac-PL3-Asp-Npg-B5-Asp-[NdiMeButC]GA-Ala-Ala-Phe-Leu-PyrS2-3Thi-BztA-Gln-NH2]	14	> 20000
CC(=O)N1CCC[C@]12CC=CCCCC1(CCCC=CCCCOC(=O)N3CC[C@@](C(=O)N[C@@H](Cc4ccsc4)C(=O)N[C@@H](Cc4csc5ccccc45)C(=O)N[C@@H](CCC(N)=O)C(N)=O)(C3)NC(=O)[C@H](CC(C)C)NC(=O)[C@H](Cc3ccccc3)NC(=O)[C@H](C)NC(=O)[C@H](C)NC(=O)[C@H](CN(CC(=O)O)C(=O)CCN(C)C)NC(=O)[C@H](CC(=O)O)NC1=O)NC(=O)[C@H](CC(C)(C)C)NC(=O)[C@H](CC(=O)O)NC2=O (stereo partly drawn) [I-2234, Ac-PL3-Asp-Npg-B5-Asp-[Me2NPr]GA-Ala-Ala-Phe-Leu-PyrS2-3Thi-BztA-Gln-NH2]	22	> 20000
CC(=O)N1CCC[C@]12CC=CCCCC1(CCCC=CCCCOC(=O)N3CC[C@@](C(=O)N[C@@H](Cc4ccsc4)C(=O)N[C@@H](Cc4csc5ccccc45)C(=O)N[C@@H](CCC(N)=O)C(N)=O)(C3)NC(=O)[C@H](CC(C)C)NC(=O)[C@H](Cc3ccccc3)NC(=O)[C@H](C)NC(=O)[C@H](C)NC(=O)[C@H](CN(CC(=O)O)C(=O)C3CCN(C)CC3)NC(=O)[C@H](CC(=O)O)NC1=O)NC(=O)[C@H](CC(C)(C)C)NC(=O)[C@H](CC(=O)O)NC2=O (stereo partly drawn) [I-2235, Ac-PL3-Asp-Npg-B5-Asp-[4AcMePip]GA-Ala-Ala-Phe-Leu-PyrS2-3Thi-BztA-Gln-NH2]	40	> 20000
CC(=O)N1CCC[C@]12CC=CCCCC1(CCCC=CCCCOC(=O)N3CC[C@@](C(=O)N[C@@H](Cc4ccsc4)C(=O)N[C@@H](Cc4csc5ccccc45)C(=O)N[C@@H](CCC(N)=O)C(N)=O)(C3)NC(=O)[C@H](CC(C)C)NC(=O)[C@H](Cc3ccccc3)NC(=O)[C@H](C)NC(=O)[C@H](C)NC(=O)[C@H](CN(CC(=O)O)C(=O)Cc3ccc(C(F)(F)F)cc3)NC(=O)[C@H](CC(=O)O)NC1=O)NC(=O)[C@H](CC(C)(C)C)NC(=O)[C@H](CC(=O)O)NC2=O (stereo partly drawn) [I-2236, Ac-PL3-Asp-Npg-B5-Asp-[4CF3PhAc]GA-Ala-Ala-Phe-Leu-PyrS2-3Thi-BztA-Gln-NH2]	23	15300
CC(=O)N1CCC[C@]12CC=CCCCC1(CCCC=CCCCOC(=O)N3CC[C@@](C(=O)N[C@@H](Cc4ccsc4)C(=O)N[C@@H](Cc4csc5ccccc45)C(=O)N[C@@H](CCC(N)=O)C(N)=O)(C3)NC(=O)[C@H](CC(C)C)NC(=O)[C@H](Cc3ccccc3)NC(=O)[C@H](C)NC(=O)[C@H](C)NC(=O)[C@H](CN(CC(=O)O)C(=O)c3ccccn3)NC(=O)[C@H](CC(=O)O)NC1=O)NC(=O)[C@H](CC(C)(C)C)NC(=O)[C@H](CC(=O)O)NC2=O (stereo partly drawn) [I-2237, Ac-PL3-Asp-Npg-B5-Asp-[Pic]GA-Ala-Ala-Phe-Leu-PyrS2-3Thi-BztA-Gln-NH2]	5	24300
CC(=O)N1CCC[C@]12CC=CCCCC1(CCCC=CCCCOC(=O)N3CC[C@@](C(=O)N[C@@H](Cc4ccsc4)C(=O)N[C@@H](Cc4csc5ccccc45)C(=O)N[C@@H](CCC(N)=O)C(N)=O)(C3)NC(=O)[C@H](CC(C)C)NC(=O)[C@H](Cc3ccccc3)NC(=O)[C@H](C)NC(=O)[C@H](C)NC(=O)[C@H](CN(CC(=O)O)C(=O)CN3CCOCC3)NC(=O)[C@H](CC(=O)O)NC1=O)NC(=O)[C@H](CC(C)(C)C)NC(=O)[C@H](CC(=O)O)NC2=O (stereo partly drawn) [I-2239, Ac-PL3-Asp-Npg-B5-Asp-[MorphAc]GA-Ala-Ala-Phe-Leu-PyrS2-3Thi-BztA-Gln-NH2]	10	31900
CC(=O)N1CCC[C@]12CC=CCCCC1(CCCC=CCCCOC(=O)N3CC[C@@](C(=O)N[C@@H](Cc4ccsc4)C(=O)N[C@@H](Cc4csc5ccccc45)C(=O)N[C@@H](CCC(N)=O)C(N)=O)(C3)NC(=O)[C@H](CC(C)C)NC(=O)[C@H](Cc3ccccc3)NC(=O)[C@H](C)NC(=O)[C@H](C)NC(=O)[C@H](CN(CC(=O)O)C(=O)CN3CCN(C)CC3)NC(=O)[C@H](CC(=O)O)NC1=O)NC(=O)[C@H](CC(C)(C)C)NC(=O)[C@H](CC(=O)O)NC2=O (stereo partly drawn) [I-2240, Ac-PL3-Asp-Npg-B5-Asp-[MePipAc]GA-Ala-Ala-Phe-Leu-PyrS2-3Thi-BztA-Gln-NH2]	5	> 20000
